Tests used:
Type in all cases: cell-based
[1] = biological target: T1, hTLR8 (human Toll-like receptor 8) (Homo sapiens, UniProt Q9NR97); experiment: hTLR8 cell assay (HEK-Blue hTLR8 reporter cells); conditions: 24 hours, OD 650 nm
T1 construct: host or cells: HEK-Blue hTLR8 (HEK293-derived reporter cells)
T1 sequence (Q9NR97 27-1041): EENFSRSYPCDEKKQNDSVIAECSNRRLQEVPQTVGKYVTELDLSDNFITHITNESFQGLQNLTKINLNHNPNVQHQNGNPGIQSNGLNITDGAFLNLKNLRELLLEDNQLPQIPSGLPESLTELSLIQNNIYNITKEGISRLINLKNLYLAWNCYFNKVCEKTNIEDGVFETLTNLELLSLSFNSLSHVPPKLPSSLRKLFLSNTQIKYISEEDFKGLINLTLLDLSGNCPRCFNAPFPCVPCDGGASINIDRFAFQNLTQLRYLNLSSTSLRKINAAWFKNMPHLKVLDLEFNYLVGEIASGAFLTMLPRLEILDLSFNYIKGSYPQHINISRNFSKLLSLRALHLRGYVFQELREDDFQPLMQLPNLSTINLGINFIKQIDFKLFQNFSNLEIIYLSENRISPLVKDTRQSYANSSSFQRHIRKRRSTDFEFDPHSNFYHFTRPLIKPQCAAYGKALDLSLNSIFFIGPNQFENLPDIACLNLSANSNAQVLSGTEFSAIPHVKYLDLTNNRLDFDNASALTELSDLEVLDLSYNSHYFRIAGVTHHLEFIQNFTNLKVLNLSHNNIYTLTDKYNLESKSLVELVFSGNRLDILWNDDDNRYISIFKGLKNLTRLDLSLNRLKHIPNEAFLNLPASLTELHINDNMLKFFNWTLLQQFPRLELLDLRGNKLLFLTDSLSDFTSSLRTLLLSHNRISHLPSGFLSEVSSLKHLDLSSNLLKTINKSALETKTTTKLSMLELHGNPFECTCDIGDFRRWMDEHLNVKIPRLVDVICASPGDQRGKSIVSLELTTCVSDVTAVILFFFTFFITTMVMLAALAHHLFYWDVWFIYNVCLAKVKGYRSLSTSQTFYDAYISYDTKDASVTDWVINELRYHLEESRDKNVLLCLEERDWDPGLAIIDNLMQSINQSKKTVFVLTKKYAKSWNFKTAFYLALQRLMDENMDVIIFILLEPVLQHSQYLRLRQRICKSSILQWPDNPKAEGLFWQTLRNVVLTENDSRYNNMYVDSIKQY
Protocol: (§1) The payload compounds of Formula (II′) were assayed to evaluate their agonistic activity on hTLR7 (human Toll-like receptor 7) and hTLR8 (human Toll-like receptor 8). Reporter cells lines (HEK-Blue hTLR7 and HEK-Blue hTLR8) were obtained from InvivoGen. Cells were cryopreserved in liquid nitrogen per supplier's instruction. Upon test, the cells were thawed, passaged and cultured in the growth media of DMEM supplemented with 10% fetal bovine serum, 1×NEAA, 1 mM Pyruvate, 2 mM glutamine, […] in the presence of the following antibiotics, as shown as Table 1. Test compounds (at desired concentrations diluted) were added to the 96-well assay plate, 0.5 μL per well. Reporter cells were harvested from the tissue culture flasks by incubation in PBS at 37° C. for two minutes after the media in the flask is removed and cells rinsed with PBS. Cells were counted and diluted in the HEK-Blue Detection media at 50000 cells/mL and incubated for 24 hours at 37° C., in a 5% CO2 humidified incubator. Then 20 μL of cell supernatant were added to the assay plate containing the 180 µL of QUANTI-Blue, incubated for 1 hour at 37° C. Optical density at 650 nm was analyzed using an Envision (Perkin Elmer) plate reader.

[2] = biological target: T2, hTLR7 (human Toll-like receptor 7) (Homo sapiens, UniProt Q9NYK1); experiment: hTLR7 cell assay (HEK-Blue hTLR7 reporter cells); conditions: 24 hours, OD 650 nm
T2 construct: host or cells: HEK-Blue hTLR7 (HEK293-derived reporter cells)
T2 sequence (Q9NYK1 27-1049): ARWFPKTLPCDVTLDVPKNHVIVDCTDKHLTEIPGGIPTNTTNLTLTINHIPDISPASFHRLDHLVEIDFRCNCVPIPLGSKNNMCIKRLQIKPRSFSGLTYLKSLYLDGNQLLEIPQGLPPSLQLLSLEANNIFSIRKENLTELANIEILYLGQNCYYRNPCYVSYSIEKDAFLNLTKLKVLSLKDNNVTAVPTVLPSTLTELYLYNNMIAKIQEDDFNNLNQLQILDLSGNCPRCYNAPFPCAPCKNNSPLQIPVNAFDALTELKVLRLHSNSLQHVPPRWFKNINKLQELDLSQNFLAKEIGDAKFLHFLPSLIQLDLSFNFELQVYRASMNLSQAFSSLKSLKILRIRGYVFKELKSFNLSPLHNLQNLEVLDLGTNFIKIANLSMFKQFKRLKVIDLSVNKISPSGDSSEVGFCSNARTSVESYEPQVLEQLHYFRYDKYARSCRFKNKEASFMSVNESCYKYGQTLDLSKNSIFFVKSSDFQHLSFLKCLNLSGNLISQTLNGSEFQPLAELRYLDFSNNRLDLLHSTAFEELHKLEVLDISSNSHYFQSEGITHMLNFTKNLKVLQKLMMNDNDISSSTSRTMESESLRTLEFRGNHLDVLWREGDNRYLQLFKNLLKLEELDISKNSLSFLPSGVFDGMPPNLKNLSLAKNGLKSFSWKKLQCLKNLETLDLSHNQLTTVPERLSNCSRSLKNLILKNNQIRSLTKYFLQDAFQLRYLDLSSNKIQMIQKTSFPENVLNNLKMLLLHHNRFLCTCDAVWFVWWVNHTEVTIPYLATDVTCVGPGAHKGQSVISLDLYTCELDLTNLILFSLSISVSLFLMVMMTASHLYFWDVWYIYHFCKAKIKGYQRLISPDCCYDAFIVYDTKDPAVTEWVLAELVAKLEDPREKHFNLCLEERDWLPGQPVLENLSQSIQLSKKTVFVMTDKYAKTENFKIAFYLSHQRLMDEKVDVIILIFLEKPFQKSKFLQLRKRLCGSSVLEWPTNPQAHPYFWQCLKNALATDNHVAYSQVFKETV
Protocol: as §1

[3] = tested on: human PBMC (human peripheral blood mononuclear cells); experiment: PBMC screening assay: induction of TNF-α production; conditions: human PBMC, 24 hours, TNF-α by ELISA; class symbols; read-out: EC50 (μM) TNF-α (hPBMC)
Protocol: The payload compounds of Formula (II′) were assayed to evaluate the induction of TNF-α production in human PBMC (human peripheral blood mononuclear cells).
Human peripheral blood mononuclear cells (PBMC) were obtained from Allcells. […] PBMC were incubated for 24 hours at 37° C. in a 5% CO2 humidified incubator. The following day PBMC plates were centrifuged at 500×g for 5 minutes and the growth media was removed. 200 μL of compound prepared in growth media at a series of diluted concentrations ranging from 2.54 nM to 50 μM were added to PBMC in duplicate and incubated for 24 hours at 37° C. in a 5% CO2 incubator. Prior to supernatant harvest, cells were spun at 500×g for 5 minutes to remove cell debris. TNF-α activity was assessed in the supernatant by ELISA (Elabscience) per the manufacturer's instructions. Optical density at 450 nm (ELISA) was analyzed using a plate reader.

Structure (SMILES) | EC50 [1] [µM] | EC50 [2] [µM] | EC50 [3] [µM]
CCOCc1nc2c(N)nc3cc(Cc4ccc(CCN)cc4)ccc3c2n1CCNS(C)(=O)=O [Compound 34, N-(2-(4-amino-7-(4-(2-aminoethyl)benzyl)-2-(ethoxymethyl)-1H-imidazo[4,5-c]quinolin-1-yl)ethyl)methanesulfonamide] | > 20 | > 10 | –
CCOCc1nc2c(N)nc3cc(Cc4ccc(CC(N)=O)cc4)ccc3c2n1CCNS(C)(=O)=O [Compound 35, 2-(4-((4-amino-2-(ethoxymethyl)-1-(2-(methylsulfonamido)ethyl)-1H-imidazo[4,5-c]quinolin-7-yl)methyl)phenyl)acetamide] | > 20 | 1 to 10 | –
CCOCc1nc2c(N)nc3cc(Cc4ccccc4)ccc3c2n1CC(C)(C)NCCCN [Compound 36, NJ-(1-(4-amino-7-benzyl-2-(ethoxymethyl)-1H-imidazo[4,5-c]quinolin-1-yl)-2-methylpropan-2-yl)propane-1,3-diamine] | > 20 | > 10 | –
CCOCc1nc2c(N)nc3cc(Cc4ccccc4)ccc3c2n1CC(C)(C)NCCN [Compound 37, N1-(1-(4-amino-7-benzyl-2-(ethoxymethyl)-1H-imidazo[4,5-c]quinolin-1-yl)-2-methylpropan-2-yl)ethane-1,2-diamine] | > 20 | > 10 | –
CCOCc1nc2c(N)nc3cc(Cc4ccccc4)ccc3c2n1CC(C)(C)N [Compound 38, 1-(2-amino-2-methylpropyl)-7-benzyl-2-(ethoxymethyl)-1H-imidazo[4,5-c]quinolin-4-amine] | > 20 | > 10 | –
CCOCc1nc2c(N)nc3cc(Cc4ccccc4)ccc3c2n1CCCCN [Compound 39, 1-(4-aminobutyl)-7-benzyl-2-(ethoxymethyl)-1H-imidazo[4,5-c]quinolin-4-amine] | 5 to 20 | > 10 | –
CCOCc1nc2c(N)nc3cc(Cc4ccccc4)ccc3c2n1CC1CC(CN)C1 (centres unmarked) [Compound 40, 1-((3-(aminomethyl)cyclobutyl)methyl)-7-benzyl-2-(ethoxymethyl)-1H-imidazo[4,5-c]quinolin-4-amine] | > 20 | 1 to 10 | –
CCCC(C)c1nc2c(N)nc3cc(Cc4ccc(CCN)cc4)ccc3c2n1Cc1ccccc1 (centres unmarked) [Compound 41, 7-(4-(2-aminoethyl)benzyl)-1-benzyl-2-(pentan-2-yl)-1H-imidazo[4,5-c]quinolin-4-amine] | 5 to 20 | 1 to 10 | –
CCCC(C)c1nc2c(N)nc3cc(Cc4ccccc4)ccc3c2n1Cc1ccc(CN)cc1 (centres unmarked) [Compound 42, 1-(4-(aminomethyl)benzyl)-7-benzyl-2-(pentan-2-yl)-1H-imidazo[4,5-c]quinolin-4-amine] | < 5 | 1 to 10 | –
CCOCc1nc2c(N)nc3cc(Cc4ccccc4)ccc3c2n1Cc1ccc(CN)cc1 [Compound 43] | 5 to 20 | < 1 | –
CCOCc1nc2c(N)nc3cc(Cc4ccc(CCN)cc4)ccc3c2n1Cc1ccc(CO)cc1 [Compound 45, (4-((4-amino-7-(4-(2-aminoethyl)benzyl)-2-(ethoxymethyl)-1H-imidazo[4,5-c]quinolin-1-yl)methyl)phenyl) methanol] | > 20 | 1 to 10 | –
CCOCc1nc2c(N)nc3cc(Cc4ccccc4)ccc3c2n1CCC(O)C(F)(F)F (centres unmarked) [Compound 46, 4-(4-amino-7-benzyl-2-(ethoxymethyl)-1H-imidazo[4,5-c]quinolin-1-yl)-1,1,1-trifluorobutan-2-ol] | > 20 | > 10 | –
CCOCc1nc2c(N)nc3cc(Cc4ccc(CCN)cc4)ccc3c2n1CC1(O)CC1 [Compound 47, 1-((4-amino-7-(4-(2-aminoethyl)benzyl)-2-(ethoxymethyl)-1H-imidazo[4,5-c]quinolin-1-yl)methyl)cyclopropan-1-ol] | > 20 | > 10 | –
CCCC(C)c1nc2c(N)nc3cc(Cc4ccc(CCN)cc4)ccc3c2n1CC(C)(C)OC (centres unmarked) [Compound 48, 7-(4-(2-aminoethyl)benzyl)-1-(2-methoxy-2-methylpropyl)-2-(pentan-2-yl)-1H-imidazo[4,5-c]quinolin-4-amine] | 5 to 20 | > 10 | –
CCOCc1nc2c(N)nc3cc(Cc4ccc(CCN)cc4)ccc3c2n1C[C@@H]1[C@@H](CO)C1(F)F [Compound 49, ((1S,3S)-3-((4-amino-7-(4-(2-aminoethyl)benzyl)-2-(ethoxymethyl)-1H-imidazo[4,5-c]quinolin-1-yl)methyl)-2,2-difluorocyclopropyl)methanol] | 5 to 20 | > 10 | –
CCOCc1nc2c(N)nc3cc(Cc4ccc(CCN)cc4)ccc3c2n1CC(C)(C)OCCO [Compound 72, 2-((1-(4-amino-7-(4-(2-aminoethyl)benzyl)-2-(ethoxymethyl)-1H-imidazo[4,5-c]quinolin-1-yl)-2-methylpropan-2-yl)oxy)ethan-1-ol] | > 20 | < 1 | –
CCOCc1nc2c(N)nc3cc(Cc4ccc(CC(N)=O)cc4)ccc3c2n1CC(C)(C)O [Compound 73, 2-(4-((4-amino-2-(ethoxymethyl)-1-(2-hydroxy-2-methylpropyl)-1H-imidazo[4,5-c]quinolin-7-yl)methyl)phenyl)acetamide] | > 20 | < 1 | –
CCOCc1nc2c(N)nc3cc(Cc4ccc(CNC(=O)CO)s4)ccc3c2n1CC(C)(C)O [Compound 169] | – | – | > 0.64

From patent US20250325687A1, “CONJUGATE COMPRISING TOLL-LIKE RECEPTOR AGONIST” (MABSOFT THERAPEUTICS (SHANGHAI) CO., LTD., priority 2022, published 2025)
